Three compounds from PubChem BioAssay AID1745844 (Carcinogenic Potency Database (CPDB), 2022) can be followed below.

Calls of active or inactive are those of the source. How the calls were made is not given here.

In general, TD50 refers to the dose at which the toxic effect under study appears in half of the subjects.

The subject of this data set is rodent lifetime carcinogenesis bioassay, tumor incidence TD50. The data set can be described thus: carcinogenic potency in animals, long-term in vivo studies, CPDB compilation (AID 1745844).

In the case of `CCN(CC)C(=S)[S-].CCN(CC)C(=S)[S-].[Cd+2]`, the TD50 by setting is: (mouse, strain B6AKF1, females, oral dosing, site: any site (literature study), lesion: several types, types named in the paper, dosed 76 weeks, study length 76 weeks) 47.5 mg/kg/day (inactive); (mouse, strain B6C3F1, females, oral dosing, site: any site (literature study), lesion: several types, types named in the paper, dosed 76 weeks, study length 76 weeks) 18 mg/kg/day (inactive); (mouse, strain B6C3F1, females, oral dosing, site: lung, lesion: adenoma, dosed 76 weeks, study length 76 weeks) 57.4 mg/kg/day (inactive); (mouse, strain B6C3F1, males, oral dosing, site: any site (literature study), lesion: several types, types named in the paper, dosed 76 weeks, study length 76 weeks) 6.2 mg/kg/day (inactive); (mouse, strain B6C3F1, males, oral dosing, site: liver, lesion: hepatoma, dosed 76 weeks, study length 76 weeks) 16.7 mg/kg/day (inactive); (mouse, strain B6C3F1, males, oral dosing, site: lung, lesion: adenoma, dosed 76 weeks, study length 76 weeks) 25.9 mg/kg/day (inactive). The carcinogen call is, setting by setting: (mouse, strain B6AKF1, females, oral dosing, site: liver, lesion: hepatoma, dosed 76 weeks, study length 76 weeks) “negative (inactive)”; (mouse, strain B6AKF1, females, oral dosing, site: lung, lesion: adenoma, dosed 76 weeks, study length 76 weeks) “negative (inactive)”; (mouse, strain B6AKF1, males, oral dosing, site: any site (literature study), lesion: several types, types named in the paper, dosed 76 weeks, study length 76 weeks) “negative (inactive)”; (mouse, strain B6AKF1, males, oral dosing, site: liver, lesion: hepatoma, dosed 76 weeks, study length 76 weeks) “negative (inactive)”; (mouse, strain B6AKF1, males, oral dosing, site: lung, lesion: adenoma, dosed 76 weeks, study length 76 weeks) “negative (inactive)”; (mouse, strain B6C3F1, females, oral dosing, site: liver, lesion: hepatoma, dosed 76 weeks, study length 76 weeks) “negative (inactive)”.

Regarding `CC(=O)[O-].CC(=O)[O-].[Cd+2]`, the carcinogen call runs as follows: (mouse, strain Charles River CD1, females, in drinking water, site: any site (literature study), lesion: one or several types, types not named, dosed 130 weeks, study length 130 weeks) “negative (inactive)”; (mouse, strain Charles River CD1, females, in drinking water, site: lung, lesion: carcinoma, dosed 130 weeks, study length 130 weeks) “negative (inactive)”; (mouse, strain Charles River CD1, males, in drinking water, site: any site (literature study), lesion: one or several types, types not named, dosed 120 weeks, study length 120 weeks) “negative (inactive)”; (mouse, strain Charles River CD1, males, in drinking water, site: lung, lesion: carcinoma, dosed 120 weeks, study length 120 weeks) “negative (inactive)”. Further, the TD50 is, setting by setting: (rat, strain Long-Evans BLU:(LE), both sexes, in drinking water, site: any site (literature study), lesion: malignant tumor, dosed 175 weeks, study length 175 weeks) 5.1 mg/kg/day (inactive); (rat, strain Long-Evans BLU:(LE), both sexes, in drinking water, site: any site (literature study), lesion: one or several types, types not named, dosed 175 weeks, study length 175 weeks) 1.81 mg/kg/day (inactive); (rat, strain Long-Evans BLU:(LE), both sexes, in drinking water, site: liver, lesion: one or several types, types not named, dosed 175 weeks, study length 175 weeks) 37.7 mg/kg/day (inactive).

For `CN(N=O)c1ccccn1`, the TD50 by setting is: (rat, strain BD VI, females, by gavage, site: any site (literature study), lesion: benign tumor, dosed 72 weeks, study length 72 weeks) 3.05 mg/kg/day; (rat, strain BD VI, females, by gavage, site: any site (literature study), lesion: malignant tumor, dosed 72 weeks, study length 72 weeks) 0.668 mg/kg/day; (rat, strain BD VI, females, by gavage, site: any site (literature study), lesion: several types, types named in the paper, dosed 72 weeks, study length 72 weeks) 0.28 mg/kg/day; (rat, strain BD VI, females, by gavage, site: esophagus, lesion: several types, types named in the paper, dosed 72 weeks, study length 72 weeks) 0.214 mg/kg/day.
